Measurements reported in the NIST ThermoML archive (doi:10.1021/je7006549).

Experiment: mn = molality of the nth substance listed, in mol/kg
Conditions: 101 kPa, Liquid

Cc1ccccc1 [toluene] + CC1=CC(=O)c2ccccc2C1=O
m2 = 0
Conditions | mass density [kg/m3] | viscosity [mPa·s]
303.15 K | 857.5 | 0.5253
308.15 K | 852.9 | 0.4933
313.15 K | 847.9 | 0.4717
318.15 K | 843.5 | 0.4491
323.15 K | 838.7 | 0.4244
328.15 K | 834 | 0.4082
333.15 K | 829.1 | 0.3835

Cc1ccccc1C [1,2-dimethylbenzene] + CC1=CC(=O)c2ccccc2C1=O
m2 = 0
Conditions | mass density [kg/m3] | viscosity [mPa·s]
303.15 K | 872.1 | 0.7404
308.15 K | 867.7 | 0.69
313.15 K | 864 | 0.6451
318.15 K | 859.7 | 0.6117
323.15 K | 855.5 | 0.5711
328.15 K | 851.2 | 0.5433
333.15 K | 847.1 | 0.5105

CC1=CC(=O)c2ccccc2C1=O [2-methyl-1,4-naphthalenedione] + CCc1ccccc1
Conditions | mass density [kg/m3] | viscosity [mPa·s]
303.15 K, m1 = 0.0451 | 859.9 | 0.6083
303.15 K, m1 = 0.0903 | 861.8 | 0.6164
303.15 K, m1 = 0.1354 | 863.7 | 0.6218
303.15 K, m1 = 0.1805 | 865.6 | 0.6317
303.15 K, m1 = 0.2256 | 867.5 | 0.6333
303.15 K, m1 = 0.271 | 869.4 | 0.6361
308.15 K, m1 = 0.0451 | 855.4 | 0.5735
308.15 K, m1 = 0.0903 | 857.3 | 0.5794
308.15 K, m1 = 0.1354 | 859.2 | 0.5853
308.15 K, m1 = 0.1805 | 861.1 | 0.5893
308.15 K, m1 = 0.2256 | 863 | 0.5948
308.15 K, m1 = 0.271 | 864.9 | 0.5991
313.15 K, m1 = 0.0451 | 851.4 | 0.5439
313.15 K, m1 = 0.0903 | 853.3 | 0.5484
313.15 K, m1 = 0.1354 | 855.2 | 0.5543
313.15 K, m1 = 0.1805 | 857.1 | 0.557
313.15 K, m1 = 0.2256 | 859 | 0.5611
313.15 K, m1 = 0.271 | 860.9 | 0.5673
318.15 K, m1 = 0.0451 | 846.6 | 0.5104
318.15 K, m1 = 0.0903 | 848.5 | 0.5148
318.15 K, m1 = 0.1354 | 850.4 | 0.5192
318.15 K, m1 = 0.1805 | 852.3 | 0.5241
318.15 K, m1 = 0.2256 | 854.2 | 0.5283
318.15 K, m1 = 0.271 | 856.1 | 0.533
323.15 K, m1 = 0.0451 | 842.4 | 0.4832
323.15 K, m1 = 0.0903 | 844.3 | 0.4881
323.15 K, m1 = 0.1354 | 846.2 | 0.4937
323.15 K, m1 = 0.1805 | 848.1 | 0.4969
323.15 K, m1 = 0.2256 | 850 | 0.5015
323.15 K, m1 = 0.271 | 851.9 | 0.5054
328.15 K, m1 = 0.0451 | 837.8 | 0.4615
328.15 K, m1 = 0.0903 | 839.7 | 0.4648
328.15 K, m1 = 0.1354 | 841.6 | 0.4715
328.15 K, m1 = 0.1805 | 843.5 | 0.474
328.15 K, m1 = 0.2256 | 845.4 | 0.4758
328.15 K, m1 = 0.271 | 847.3 | 0.4806
333.15 K, m1 = 0.0451 | 833.5 | 0.4405
333.15 K, m1 = 0.0903 | 835.4 | 0.444
333.15 K, m1 = 0.1354 | 837.3 | 0.4475
333.15 K, m1 = 0.1805 | 839.2 | 0.451
333.15 K, m1 = 0.2256 | 841.1 | 0.4546
333.15 K, m1 = 0.271 | 843 | 0.4581

Cc1ccc(C)cc1 [1,4-dimethylbenzene] + CC1=CC(=O)c2ccccc2C1=O
m2 = 0
Conditions | mass density [kg/m3] | viscosity [mPa·s]
303.15 K | 852 | 0.5726
308.15 K | 847.7 | 0.5374
313.15 K | 843.2 | 0.5178
318.15 K | 838.7 | 0.4882
323.15 K | 834.5 | 0.4595
328.15 K | 829.9 | 0.4439
333.15 K | 825.6 | 0.4189

CC1=CC(=O)c2ccccc2C1=O [2-methyl-1,4-naphthalenedione] + c1ccccc1
Conditions | mass density [kg/m3] | viscosity [mPa·s]
303.15 K, m1 = 0.0334 | 869.4 | 0.5788
303.15 K, m1 = 0.0889 | 871.8 | 0.5842
303.15 K, m1 = 0.1332 | 873.7 | 0.588
303.15 K, m1 = 0.1778 | 875.6 | 0.5927
303.15 K, m1 = 0.2215 | 877.5 | 0.6006
303.15 K, m1 = 0.2681 | 879.5 | 0.6063
308.15 K, m1 = 0.0334 | 863.6 | 0.5408
308.15 K, m1 = 0.0889 | 866 | 0.5443
308.15 K, m1 = 0.1332 | 867.9 | 0.5484
308.15 K, m1 = 0.1778 | 869.8 | 0.5519
308.15 K, m1 = 0.2215 | 871.7 | 0.5598
308.15 K, m1 = 0.2681 | 873.7 | 0.5667
313.15 K, m1 = 0.0334 | 858.4 | 0.5057
313.15 K, m1 = 0.0889 | 860.8 | 0.5096
313.15 K, m1 = 0.1332 | 862.7 | 0.5142
313.15 K, m1 = 0.1778 | 864.6 | 0.5189
313.15 K, m1 = 0.2215 | 866.5 | 0.5242
313.15 K, m1 = 0.2681 | 868.5 | 0.5309
318.15 K, m1 = 0.0334 | 853 | 0.4782
318.15 K, m1 = 0.0889 | 855.4 | 0.4811
318.15 K, m1 = 0.1332 | 857.3 | 0.4847
318.15 K, m1 = 0.1778 | 859.2 | 0.4893
318.15 K, m1 = 0.2215 | 861.1 | 0.4945
318.15 K, m1 = 0.2681 | 863.1 | 0.5
323.15 K, m1 = 0.0334 | 847.7 | 0.4467
323.15 K, m1 = 0.0889 | 850.1 | 0.4489
323.15 K, m1 = 0.1332 | 852 | 0.4528
323.15 K, m1 = 0.1778 | 853.9 | 0.4566
323.15 K, m1 = 0.2215 | 855.8 | 0.461
323.15 K, m1 = 0.2681 | 857.8 | 0.4647
328.15 K, m1 = 0.0334 | 842.1 | 0.4206
328.15 K, m1 = 0.0889 | 844.5 | 0.4235
328.15 K, m1 = 0.1332 | 846.4 | 0.4266
328.15 K, m1 = 0.1778 | 848.3 | 0.4318
328.15 K, m1 = 0.2215 | 850.2 | 0.4347
328.15 K, m1 = 0.2681 | 852.2 | 0.4388
333.15 K, m1 = 0.0334 | 836.8 | 0.3946
333.15 K, m1 = 0.0889 | 839.2 | 0.3967
333.15 K, m1 = 0.1332 | 841.1 | 0.4003
333.15 K, m1 = 0.1778 | 843 | 0.4069
333.15 K, m1 = 0.2215 | 844.9 | 0.4084
333.15 K, m1 = 0.2681 | 846.9 | 0.4121
